Experimental data taken from publication PMC10762375 (Computational and Structural Biotechnology Journal, 2023).
Residue numbers refer to the chain shown, from its start.

Columns and labels:
ckP2X7 T202W = format: cell-based, chicken
rP2X2 K212A = biological target: T1, rP2X2 K212A (Rattus norvegicus, UniProt P49653, K212A); test: Conventional whole-cell patch recording of ATP-evoked currents, transfected HEK293 cells; format: cell-based
T1 construct: expressed in transfected cells; host or cells: HEK293
T1 sequence (P49653 1-472 K212A): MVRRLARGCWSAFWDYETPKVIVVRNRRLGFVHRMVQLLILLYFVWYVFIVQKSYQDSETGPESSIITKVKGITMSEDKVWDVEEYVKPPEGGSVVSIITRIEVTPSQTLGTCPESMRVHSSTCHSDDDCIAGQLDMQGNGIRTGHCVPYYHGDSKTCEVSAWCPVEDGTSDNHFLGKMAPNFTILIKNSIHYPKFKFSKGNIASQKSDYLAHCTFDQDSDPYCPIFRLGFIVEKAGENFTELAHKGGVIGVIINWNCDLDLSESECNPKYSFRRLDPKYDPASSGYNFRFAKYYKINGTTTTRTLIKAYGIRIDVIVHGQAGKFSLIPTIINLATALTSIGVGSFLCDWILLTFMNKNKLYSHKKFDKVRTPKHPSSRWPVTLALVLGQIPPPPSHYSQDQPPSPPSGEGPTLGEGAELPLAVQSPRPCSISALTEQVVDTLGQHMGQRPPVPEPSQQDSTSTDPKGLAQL
Procedure: (§1) As we described previously, [41], [42], human embryonic kidney (HEK 293) cells were purchased from Shanghai Institutes for Biological Sciences and cultured in Dulbecco's Modified Eagle Medium supplemented with 10% fetal bovine serum (FBS), 1% penicillin-streptomycin and 1% GlutaMAX™ at 37 °C, 5% CO2 and 95% air in a humidified environment. Plasmids were transfected into cells using transfection agents containing two solutions (Solution A: 250 mM CaCl2 in pure water; Solution B (in mM): 1.5 Na2HPO4, 140 NaCl and 50 HEPES, pH adjusted to 6.96). After mixing 2.5–3 μg of the plasmid and solution A, the mixture was added dropwise to an equal volume of solution B, followed by stirring with a pipette tip. The mixture was left to stabilize at room temperature for 3–5 min and then added to the cell culture dish. After 6 h of transfection, the medium in the culture dish was replaced with fresh medium.
(§2) Nystatin (0.15 mg/mL) was diluted with a high potassium internal solution containing (in mM): 75 K2SO4, 55 KCl, 5 MgSO4, and 10 HEPES (pH 7.4). The ckP2X7 and rP2X2 receptor currents were recorded using conventional whole-cell patch configuration. At 24–48 h after transfection, HEK293 cells were recorded using an Axopatch 200B amplifier (Molecular Devices, USA) at room temperature (25 ± 2 °C), with holding a potential of − 60 mV. Current data were sampled at 10 kHz, filtered at 2 kHz, and analyzed using the PCLAMP 10 software (Molecular Devices, USA). HEK293 cells were bathed in standard extracellular solution (SS) containing (in mM): 150 NaCl, 5 KCl, 2 CaCl2, 1 MgCl2, 10 glucose, and 10 HEPES (pH 7.4, by Tris-base). For conventional whole-cell recordings, the pipette solution consisted of (in mM): 120 KCl, 30 NaCl, 0.5 CaCl2, 1 MgCl2, 5 EGTA, and 10 HEPES (pH 7.4, by Tris-base). ATP and drugs were dissolved in standard extracellular solution and administered with a Y-tube.
(§3) All electrophysiological recordings were analyzed using Clampfit 10.6 (Molecular Devices). Pooled data were expressed as mean and standard error of the mean (s.e.m.). Comparisons between multiple independent groups were performed using one-way ANOVA followed by Dunnett's tests. Comparisons between two groups were made using paired (before and after engineered disulfide bond cross-linking) or unpaired Student’s t tests, as appropriate.

rP2X2 V119W/H120W = biological target: T2, rP2X2 V119W/H120W (Rattus norvegicus, UniProt P49653, H120W/V119W); test: as above; format: cell-based
T2 construct: expressed in transfected cells; host or cells: HEK293
T2 sequence (P49653 1-472 V119W/H120W): T1 sequence (P49653 1-472 K212A) with V119W, H120W, A212K
Procedure: as §1, §2, §3

rP2X2 WT = biological target: T3, rP2X2 WT (Rattus norvegicus, UniProt P49653); test: as above; format: cell-based
T3 construct: expressed in transfected cells; host or cells: HEK293
T3 sequence (P49653 1-472): T1 sequence (P49653 1-472 K212A) with A212K
Procedure: as §1, §2, §3

F 174 A mutant of hP2X3 = test system: F 174 A mutant of hP2X3; design: method as in PMID 24223907; settings: hP2X3 F174A; cited from earlier work
rP2X3 WT = biological target: T4, rP2X3 WT (Rattus norvegicus, UniProt P49654); test: Nystatin perforated patch recording of ATP-evoked currents, transfected HEK293 cells; format: cell-based; settings: Hill 1 fit, mean ± s.e.m.
T4 construct: EGFP (only implied by the anti-EGFP blot of rP2X3 plasmids); expressed in transfected cells; host or cells: HEK293
T4 sequence (P49654 1-397): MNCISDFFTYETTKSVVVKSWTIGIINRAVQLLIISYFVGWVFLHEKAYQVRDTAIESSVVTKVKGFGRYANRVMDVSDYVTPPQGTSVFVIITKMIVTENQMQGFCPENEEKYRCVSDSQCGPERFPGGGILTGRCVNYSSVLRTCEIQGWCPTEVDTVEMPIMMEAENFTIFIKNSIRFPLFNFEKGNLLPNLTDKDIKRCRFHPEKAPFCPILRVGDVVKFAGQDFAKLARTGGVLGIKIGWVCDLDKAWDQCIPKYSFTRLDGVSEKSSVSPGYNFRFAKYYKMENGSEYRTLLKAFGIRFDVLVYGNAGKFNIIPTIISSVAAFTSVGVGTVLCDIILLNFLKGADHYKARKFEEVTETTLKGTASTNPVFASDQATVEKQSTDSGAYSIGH
Procedure: As we described previously, [41], [42], human embryonic kidney (HEK 293) cells were purchased from Shanghai Institutes for Biological Sciences and cultured in Dulbecco's Modified Eagle Medium supplemented with 10% fetal bovine serum (FBS), 1% penicillin-streptomycin and 1% GlutaMAX™ at 37 °C, 5% CO2 and 95% air in a humidified environment. Plasmids were transfected into cells using transfection agents containing two solutions (Solution A: 250 mM CaCl2 in pure water; Solution B (in mM): 1.5 Na2HPO4, 140 NaCl and 50 HEPES, pH adjusted to 6.96). […]
Nystatin (0.15 mg/mL) was diluted with a high potassium internal solution containing (in mM): 75 K2SO4, 55 KCl, 5 MgSO4, and 10 HEPES (pH 7.4). The ckP2X7 and rP2X2 receptor currents were recorded using conventional whole-cell patch configuration. At 24–48 h after transfection, HEK293 cells were recorded using an Axopatch 200B amplifier (Molecular Devices, USA) at room temperature (25 ± 2 °C), with holding a potential of − 60 mV. Current data were sampled at 10 kHz, filtered at 2 kHz, and analyzed using the PCLAMP 10 software (Molecular Devices, USA). […]
All electrophysiological recordings were analyzed using Clampfit 10.6 (Molecular Devices). Pooled data were expressed as mean and standard error of the mean (s.e.m.). […]

rP2X3 K201C/V274C = biological target: T5, rP2X3 K201C/V274C (Rattus norvegicus, UniProt P49654, K201C/V274C); test: as above; format: cell-based; settings: Hill 1 fit
T5 construct: EGFP (only implied by the anti-EGFP blot of rP2X3 plasmids); expressed in transfected cells; host or cells: HEK293
T5 sequence (P49654 1-397 K201C/V274C): T4 sequence (P49654 1-397) with K201C, V274C

hP2X3 R204A = biological target: T6, hP2X3 R204A (Homo sapiens, UniProt P56373, R204A); test: as above; format: cell-based
T6 construct: expressed in transfected cells; host or cells: HEK293
T6 sequence (P56373 1-397 R204A): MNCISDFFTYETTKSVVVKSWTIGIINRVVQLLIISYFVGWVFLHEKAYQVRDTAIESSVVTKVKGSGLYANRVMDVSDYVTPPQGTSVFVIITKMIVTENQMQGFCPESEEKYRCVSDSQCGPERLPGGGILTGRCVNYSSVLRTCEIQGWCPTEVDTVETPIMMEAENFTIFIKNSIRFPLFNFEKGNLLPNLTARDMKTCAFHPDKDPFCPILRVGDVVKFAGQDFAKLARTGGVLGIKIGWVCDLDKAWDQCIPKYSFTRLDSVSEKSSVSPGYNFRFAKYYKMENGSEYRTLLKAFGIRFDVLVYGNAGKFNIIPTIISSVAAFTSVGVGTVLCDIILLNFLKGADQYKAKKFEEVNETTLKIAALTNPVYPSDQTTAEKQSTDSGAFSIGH

hP2X3 WT = biological target: T7, hP2X3 WT (Homo sapiens, UniProt P56373); test: as above; format: cell-based; settings: Hill 1 fit
T7 construct: host or cells: HEK293
T7 sequence (P56373 1-397): T6 sequence (P56373 1-397 R204A) with A204R

hP2X3 K113A = biological target: T8, hP2X3 K113A (Homo sapiens, UniProt P56373, K113A); test: as above; format: cell-based
T8 construct: expressed in transfected cells; host or cells: HEK293
T8 sequence (P56373 1-397 K113A): T6 sequence (P56373 1-397 R204A) with K113A, A204R

## Nc1ncnc2c1ncn2[C@@H]1O[C@H](COP(=O)(O)OP(=O)(O)OP(=O)(O)O)[C@H]2OC3(O[C@H]21)C([N+](=O)[O-])=CC(=[N+]([O-])[O-])C=C3[N+](=O)[O-] (stereo partly shown) [TNP-ATP, 2',3'-O-(2,4,6-trinitrophenyl)-ATP]
ckP2X7 T202W; 1 mM ATP
  enhancement of apparent affinity of TNP-ATP vs WT: about 38 fold
rP2X2 K212A
  IC50: 15.8 ± 2 µM
rP2X2 K212A; rP2X2 K212A vs rP2X2 WT
  reduction of potency of inhibition by TNP-ATP vs WT: ~5 fold
rP2X2 V119W/H120W
  IC50: 24.9 ± 5 µM
rP2X2 V119W/H120W; rP2X2 V119W/H120W vs rP2X2 WT
  reduction of sensitivity to TNP-ATP inhibition vs WT: ~8 fold
rP2X2 WT
  IC50: 3.14 ± 0.95 µM
F 174 A mutant of hP2X3
  effect of mutation on inhibition by TNP-ATP: does not alter the inhibition

## Nc1ncnc2c1ncn2[C@@H]1O[C@H](COP(=O)(O)OP(=O)(O)OP(=O)(O)O)[C@@H](O)[C@H]1O [ATP]
rP2X3 WT
  EC50: 0.832 ± 0.143 µM
rP2X3 K201C/V274C
  EC50: 12.9 ± 2.7 µM
ckP2X7 T202W
  reduction in affinity to ATP vs WT: approximately 60 fold
rP2X2 K212A; rP2X2 K212A
  EC50: 9.83 ± 0.34 µM
rP2X2 V119W/H120W; rP2X2 V119W/H120W
  EC50: 221 ± 36 µM
rP2X2 WT; rP2X2 WT
  EC50: 5.39 ± 0.11 µM
hP2X3 R204A
  EC50: 1.22 ± 0.22 µM
hP2X3 WT
  EC50: 0.767 ± 0.099 µM
hP2X3 K113A
  EC50: 0.872 ± 0.232 µM
